Experimental findings from patent publication US9120762B2, “Salts of bicyclo-substituted pyrazolon azo derivatives, preparation method and use thereof” (Jiangsu Hengrui Medicine Co., Ltd., priority 2009, dated 2015) are described below.

In one data set the target is T1, human TPOR (Homo sapiens, UniProt P40238).
T1 construct: host or cells: BaF3 (murine pro-B cells), stably transfected, G418-selected
T1 sequence (P40238 26-635): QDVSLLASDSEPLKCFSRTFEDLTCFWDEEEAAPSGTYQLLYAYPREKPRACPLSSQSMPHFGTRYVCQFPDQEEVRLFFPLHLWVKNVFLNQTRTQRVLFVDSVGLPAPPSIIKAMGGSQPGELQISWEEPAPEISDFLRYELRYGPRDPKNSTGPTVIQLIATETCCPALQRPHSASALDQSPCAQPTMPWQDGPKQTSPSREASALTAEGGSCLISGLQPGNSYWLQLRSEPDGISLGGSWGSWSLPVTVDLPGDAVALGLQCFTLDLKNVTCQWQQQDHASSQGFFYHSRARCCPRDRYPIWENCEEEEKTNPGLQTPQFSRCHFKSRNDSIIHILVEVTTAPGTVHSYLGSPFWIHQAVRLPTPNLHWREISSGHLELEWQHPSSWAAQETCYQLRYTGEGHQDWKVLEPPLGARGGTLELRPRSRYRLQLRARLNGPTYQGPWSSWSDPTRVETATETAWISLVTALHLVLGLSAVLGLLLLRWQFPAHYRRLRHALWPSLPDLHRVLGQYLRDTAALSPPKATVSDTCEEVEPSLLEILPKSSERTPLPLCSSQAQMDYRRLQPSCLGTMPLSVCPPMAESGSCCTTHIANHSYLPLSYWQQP
In words: Proliferation effect on BAF3-TPOR cell (CCK-8). Format: cell-based. Conditions: rate relative to rhTPO positive control. The method, then: (1) Plasmid constructs: based on the TPO receptor (TPOR) sequence information from Entrez (Gene ID: 4325, Refseq: NM_005373), dual-site mutation was performed on EX-B0010-M02 plasmid by using QuikChange® Multi Site Directed Mutagenesis Kit (Stratagene). The sequence of primers containing multi-sites mutation was designed as follows: […]
The E. coli DH5α competent cells were transformed with mutated plasmid, and positive colonies were picked up through ampicillin selection. The mutation result was confirmed by sequence analysis.
(2) BAF3-TPOR stable transfected cell line: the following method was used to construct the BaF3 cell which stably over-expressed functional human TPOR. The successfully mutated EX-B0010-M02 plasmid ([…]) which expressed human TPOR and screening gene neomycin was transfected into wild-type BaF3 cells (1×10^7) by electroporation at 250V for 18 ms using an electric pulse generator (Electro Square Porator ECM830, BTX Division of Genetronic, Inc. US). The stable transfected cells BAF3-TPOR were selected with G418 (Gibco, US), then incubated in RPMI1640 medium plus 10% FBS (Gibco, US), […] G418, 5 ng/mL, rmIL-3 (Chemicon, US).
(1) Washing cells by centrifugation: a suitable amount of cell suspension was centrifuged at 1000 rpm for 5 minutes, and the supernatant was discarded. 10 mL of cell culture media without IL-3 was added. Then the resulting cell suspension was centrifuged at 1000 rpm for 5 minutes, and the supernatant was discarded.
(2) 1 mL of cell culture media without IL-3 was added to beat upon them to equality, and the number of a suitable amount of cell suspension was counted after dilution.
(3) According to the result of the cell counting, a cell suspension in a concentration of 100,000 cell/mL was prepared.
(4) 100 μL of cell suspension was transferred to each well of 96-well culture plate, and there were 3 parallel wells, that is, there were a blank control group (B), a negative control group (N), a positive control group of TPO (P) and a test compound group (S).
(5) The test compound was dissolved in DMSO to prepare a 10 mM stock solution, and then the solution was diluted with RPMI 1640 medium into a series of test samples at different concentration: 30 μM, 10 μM, 3 μM, 1 μM, 0.3 μM, 0.1 μM, 0.03 μM, 0.01 μM, 0.003 μM, 0.001 μM.
(6) 10 μL of test compound solution was transferred to each well respectively; 1 μL of rhTPO (10 ng/mL) was added to positive control well.
(7) The plates were incubated in an incubator at 5% CO2 and 37° C. for 24 hours.
(8) After incubation, 10 μL of CCK-8 solution was added to each well and the plates were incubated in the incubator for another 24 hours.
(9) OD value was detected at 450 nm by VICTORS (Perkin Elmer 1420-120) plate reader.
(1) The proliferation rate was calculated as follows: Rate=[(S−B)/(P−B)]*100%
S: OD value of wells which contain test compound.
B: OD value of blank control wells
P: OD value of positive control wells
(2) The EC50 value was calculated by Origin 7.0 software.

Data set [1] in a line: Pharmacokinetics assay in rats. Conditions: 50 mg/kg, SD rats, intragastric, 50 mg/Kg (as free acid); for Vd/F / AUC / CL/F / half-life / MRT / Cmax / Tmax: both sexes, SD, rat, plasma, po; for Vd/F: read-out: Apparent Distribution Volume Vz/F; for AUC: read-out: Area Under Curve AUC; for CL/F: read-out: Clearance CL/F (converted); for half-life: read-out: Half-Life t½ (converted); for MRT: read-out: Mean Residence Time MRT; for Cmax: read-out: Plasma Conc. Cmax; for Tmax: read-out: Time to peak Tmax. It counts as in vivo, SD rats. The procedure:
The compounds of the present disclosure were administrated intragastrically to rats to determine the drug concentration in plasma at different time points by HPLC-UV. The pharmacokinetic behavior of the compounds of the present disclosure was studied and evaluated in rats. […] Healthy adult SD rats, male and female in half, were purchased from SINO-BRITSH SIPPR/BK LAB.ANIMAL LTD., Colo., License number: SCXK (Shanghai) 2003-0002 The test compound was diluted with 1% sodium carboxymethyl cellulose to 5 mg/mL (calculated as the free acid form) of suspension before use. Healthy adult SD rats, male and female in half, were divided into 23 groups. […] The plasma samples were stored at −20° C. until analysis. The rats were fed 2 hours after administration. […] Then the mixture was mixed for 3 minute using a vortexer and centrifuged for 10 minutes at 13,500 rpm. 40 μL of the supernatant was analyzed by HPLC-UV. The compartmental model of pharmacokinetics was fitted for the test compounds and the major pharmacokinetic parameters were calculated in which Cmax and tmax were the actually measured values.

`CC1=NN(c2ccc3c(c2)CCCC3)C(=O)/C1=N\Nc1cccc(-c2coc(C(=O)O)c2)c1O.NCCO.NCCO` [Example 22, (Z)-4-(2-Hydroxy-3-{N′-[3-methyl-5-oxo-1-(5,6,7,8-tetrahydro-naphthal-2-yl)-1,5-dihydro-pyrazol-4-ylidene]-hydrazino}-phenyl)-furan-2-carboxylic acid bis-(ethanolamine)] yielded an EC50 at human TPOR of 39 nM. For the same compound, in data set [1], the Vd/F turned out to be 3.41 ± 1.75 L/kg, the AUC is 603 ± 240 µg·h/mL, the CL/F was 4 mL/min/kg and the half-life is 9.95 ± 0.6 h. In data set [1], the MRT was found to be 14.8 ± 1 h, the highest concentration (Cmax) came out at 39800 ± 18200 ng/mL and the Tmax is 5 ± 2 h.

`CC1=NN(c2ccc3c(c2)CCCC3)C(=O)/C1=N\Nc1cccc(-c2coc(C(=O)O)c2)c1O` [Example 22f, (Z)-4-(2-hydroxy-3-{N′-[3-methyl-5-oxo-1-(5,6,7,8-tetrahydro-naphthal-2-yl)-1,5-dihydro-pyrazol-4-ylidene]-hydrazino}-phenyl)-furan-2-carboxylic acid]: on human TPOR, the EC50 was found to be 42 nM. For the same compound, in data set [1], the Vd/F worked out at 8.49 ± 2.16 L/kg, the AUC stood at 151 ± 97 µg·h/mL, the CL/F was 11.5 mL/min/kg and the half-life is 9.21 ± 1.57 h. In data set [1], the MRT was found to be 11.8 ± 4.5 h, the maximum concentration (Cmax) was 8730 ± 2580 ng/mL and the time to peak (Tmax) came out at 4.25 ± 1.26 h.

For the compound `CC1=NN(c2ccc3c(c2)CCCC3)C(=O)/C1=N\Nc1cccc(-c2ccc(C(=O)O)o2)c1O` [Example 9, (Z)-5-(2-hydroxy-3-{N′-[3-methyl-5-oxo-1-(5,6,7,8-tetrahydro-naphthalen-2-yl)-1,5-dihydro-pyrazol-4-ylidene]-hydrazino}-phenyl)-furan-2-carboxylic acid bis-(diethylamine)], on human TPOR, the EC50 came to 14 nM. Moreover, in data set [1], the “Area Under Curve AUC” value turned out to be 146 ± 69.7 µg·h/mL, the “Clearance CL/F” value is 6.52 ± 2.42 mL/min/kg, the “Half-Life t½” value was 9.65 ± 2.48 h and the “Plasma Conc. Cmax” value was 21200 ± 10400 ng/mL. In addition, in data set [1], the “Time to peak Tmax” value is listed as 2.88 ± 2.59 h.

`CC1=NN(c2ccc3c(c2)CCCC3)C(=O)/C1=N\Nc1cccc(-c2ccc(C(=O)O)o2)c1O` [Example 13, (Z)-5-(2-hydroxy-3-{N′-[3-methyl-5-oxo-1-(5,6,7,8-tetrahydro-naphthalen-2-yl)-1,5-dihydro-pyrazol-4-ylidene]-hydrazino}-phenyl)-furan-2-carboxylic acid bis-(dibenzylethylenediamine)] showed an EC50 at human TPOR of 20 nM. Further, in data set [1], the “Area Under Curve AUC” value was 42.8 ± 33.2 µg·h/mL, the “Clearance CL/F” value is 27.2 ± 13.8 mL/min/kg, the “Half-Life t½” value was 5.70 ± 2.50 h and the “Plasma Conc. Cmax” value was 8100 ± 3350 ng/mL. In addition, the “Time to peak Tmax” value in data set [1] is recorded as 1.38 ± 1.11 h.

In the case of `CC1=NN(c2ccc3c(c2)CCCC3)C(=O)/C1=N\Nc1cccc(-c2ccc(C(=O)O)o2)c1O` [Example 15, (Z)-5-(2-hydroxy-3-{N′-[3-methyl-5-oxo-1-(5,6,7,8-tetrahydro-naphthalen-2-yl)-1,5-dihydro-pyrazol-4-ylidene]-hydrazino}-phenyl)-furan-2-carboxylic acid bis-(L-arginine)], at human TPOR, the EC50 was found to be 16 nM. In addition, in data set [1], the “Area Under Curve AUC” value amounted to 168 ± 118 µg·h/mL, the “Clearance CL/F” value came out at 12.6 ± 16.6 mL/min/kg, the “Half-Life t½” value was determined as 6.56 ± 3.80 h and the “Plasma Conc. Cmax” value came out at 23300 ± 13600 ng/mL. Besides, the “Time to peak Tmax” value in data set [1] is given as 2.0 ± 1.16 h.

At human TPOR, `CC1=NN(c2ccc3c(c2)C(C)(C)CC3)C(=O)/C1=N\Nc1cccc(-c2ccc(C(=O)O)o2)c1O` [Example 5, (Z)-5-(3-{N′-[1-(3,3-dimethyl-indan-5-yl)-3-methyl-5-oxo-1,5-dihydro-pyrazol-4-ylidene]-hydrazino}-2-hydroxy-phenyl)-furan-2-carboxylic acid bis-(diethylamine)] registered an EC50 of 19 nM. Moreover, in data set [1], the “Area Under Curve AUC” value turned out to be 255 ± 95 µg·h/mL, the “Clearance CL/F” value turned out to be 3.67 ± 1.2 mL/min/kg, the “Half-Life t½” value came to 15.0 ± 6.2 h and the “Mean Residence Time MRT” value was found to be 20.8 ± 9.1 h. In data set [1], the “Plasma Conc. Cmax” value was 19800 ± 3800 ng/mL and the “Time to peak Tmax” value is 3.25 ± 1.5 h.

By EC50 is commonly meant the concentration giving half of the maximal effect. As usually defined, the AUC is concentration integrated over time. By half-life is commonly meant the time needed for the level to fall by half in the phase considered. The term MRT denotes the average time that molecules of a dose stay in the body. For orientation: Cmax means the highest concentration seen after dosing. Broadly, the Tmax is the time at which the peak concentration occurs.
